# “Also recorded” adds a separate entry of the source.
# Assays:
# L-NAME-treated male rats = assay: L-NAME-induced hypertension in male rats; format: in vivo, rat
# Experimental: (§1) FIG. 2 provides further evidence that progesterone can induce mechanisms which compensate the L-NAME-produced hypertension. This study was performed in male rats, showing pregnancy is not essential for this effect.
# [1] = system: preeclamptic rats (L-NAME); assay: Blood pressure in L-NAME-induced preeclampsia model, pregnant and postpartum rats; format: in vivo, rat; conditions: for post-partum increase in blood pressure: R 5020 5 mg/animal/day; for blood pressure in the postpartum period: preeclamptic rats, L-NAME 25 mg/animal/day s.c. infusion plus cicaprost
# Experimental: These symptoms are related to the decrease in vascular resistance and placental perfusion. […] Preeclampsia was induced with an nitric oxide inhibitor L-NAME (25 mg/animal/day, s.c. infusion).
# placental blood vessels = conditions: in vitro; cited from earlier work
# [2] = system: cases of severe early-onset fetal growth retardation; conditions: 2 cases, intravenous, 4 ng/kg/min; cited from earlier work
# [3] = intravenous use; cited from earlier work
# sheep = conditions: infusion; cited from earlier work
# humans = conditions: infusion; cited from earlier work
# [4] = in vivo; cited from earlier work
# [5] = system: women with severe preeclampsia; conditions: cited from earlier work
# pregnant guinea pigs = assay: Inhibition of nitric oxide synthesis during pregnancy in guinea pigs; format: in vivo, guinea pig; conditions: unreported studies
# Text: There is also evidence that prostacyclin production is decreased in preeclampsia. In a normal pregnancy there is an approximately 5-10-fold increase in prostacyclin production compared to the non-pregnant state (Goodman 1982, Walsh 1985, Fitzgerald 1,987). In contrast, there is a decreased production of prostacyclin in maternal, placental and umbilical cord vessels and in placental cotyledons (Remuzzi 1980, […] 1984, Walsh 1985) in preeclampsia. An imbalance in the ratio of thromboxane A2 to prostacyclin in preeclampsia has been proposed as a major pathological mechanism in preeclampsia (Walsh 1988, Fitzgerald 1987, Friedman 1988). Other experimental studies (unreported) in pregnant rats and guinea pigs indicate that nitric oxide deficiency is the primary event in preeclampsia.
# cholesterol-fed rabbits = conditions: cited from earlier work
# [6] = system: preeclamptic rats (L-NAME); assay: Fetal weight and fetal mortality in L-NAME-treated pregnant rats; format: in vivo, rat; conditions: iloprost plus L-NAME vs L-NAME-treated group
# Text: The unexpected results of the studies described below indicate that the response of blood vessels to prostacyclins and subsequent blood pressure lowering effect is controlled by progesterone. […] These symptoms are related to the decrease in vascular resistance and placental perfusion. […] Thus, the condition of pregnancy and the progestin treatment highly increase the responsiveness of blood vessels to exogenous prostacyclin. The increased response of blood vessels results in the lowering of the effective dose of prostacyclin analogs and subsequently in the reduction of side effects.
# as §1
# [7] = system: microvascular arteriolar endothelium; conditions: cited from earlier work
smiles,measurement,setting,value
"CCC(=O)[C@@]1(C)CC[C@H]2[C@@H]3CCC4=CC(=O)CCC4=C3CC[C@@]21C [R 5020, promegestone]",L-NAME-induced hypertension,"L-NAME-treated male rats; male rats, 0.5 mg/animal/day s.c., FIG. 2",reduces the L-NAME-induced hypertension
same,post-partum increase in blood pressure,"[1]; iloprost plus L-NAME, FIG. 4",dramatically decrease the post-partum increase in blood pressure
same,post-partum increase in blood pressure,"[1]; iloprost plus L-NAME, FIG. 4, listed as R5020",restores the efficacy of iloprost/cicaprost to lower blood pressure
same,blood pressure in the postpartum period,[1]; FIG. 1,lowers blood pressure; also recorded: restores the postpartum decrease in the efficacy of cicaprost to lower blood pressure
same,blood pressure in the postpartum period,"[1]; FIG. 1, listed as R5020",restores the efficacy of iloprost/cicaprost to lower blood pressure
CC(=O)[C@H]1CC[C@H]2[C@@H]3CCC4=CC(=O)CC[C@]4(C)[C@H]3CC[C@]12C [progesterone],blood pressure,L-NAME-treated male rats; L-NAME-treated male rats,partially lowers blood pressure
CCCCC[C@H](O)/C=C/[C@@H]1[C@H]2C/C(=C/CCCC(=O)O)O[C@H]2C[C@H]1O [prostacyclin],relaxation of placental blood vessels,placental blood vessels,consistently relaxes placental blood vessels
same,outcome of attempt to promote fetal growth,[2],intrauterine death in each case
same,systemic blood pressure,[3],marked fall in systemic blood pressure
same,placental perfusion,sheep,did not result in the increase in placental perfusion; also recorded: a decrease of placental perfusion
same,placental perfusion,humans,did not result in the increase in placental perfusion
same,duration of action,[4],short duration of action
same,babies survived,"[5]; 7 women, 4-8 ng/kg/min i.v.",4/7
same,fetal effects during treatment,"[5]; 7 women, 4-8 ng/kg/min i.v.",Fetal bradycardia was observed; also recorded: two fetuses died during prostacyclin infusion
same,blood pressure during prostacyclin infusion,"[5]; 7 women, 4-8 ng/kg/min, 5 h to 11 days",rapid decrease in blood pressure
same,uteroplacental blood flow,[5]; steal phenomenon,decreased uteroplacental blood flow
COC(=O)[C@@H](N)CCCNC(=N)N[N+](=O)[O-] [L-NAME],"signs and symptoms of preeclampsia (hypertension, proteinuria, fetal growth retardation)",[1]; pregnant rats,"caused the classical symptoms hypertension, proteinuria and fetal growth retardation; also recorded: produces signs and symptoms of preeclampsia"
same,"classical symptoms hypertension, proteinuria and fetal growth retardation",pregnant guinea pigs,"caused the classical symptoms hypertension, proteinuria and fetal growth retardation"
CCC#CC[C@H](C)[C@H](O)C#C[C@@H]1[C@H]2C/C(=C/COCC(=O)O)C[C@H]2C[C@H]1O [cicaprost],blood pressure during pregnancy (prepartum),"[1]; cicaprost plus L-NAME, progesterone levels high, FIG. 1",greater in late pregnancy; also recorded: a fall in blood pressure
same,blood pressure postpartum,"[1]; cicaprost plus L-NAME, progesterone levels low, FIG. 1",rapid increase in blood pressure; also recorded: an increase
same,bioavailability,[4],high bioavailability
same,duration of action,[4],prolonged duration of action
same,aortic atheromatous plaque formation,"cholesterol-fed rabbits; oral, cholesterol-fed rabbits",reduced aortic atheromatous plaque formation
same,hypercholesterolemia-induced impairment of endothelium-dependent relaxation,"cholesterol-fed rabbits; oral, cholesterol-fed rabbits",partially prevented hypercholesterolemia-induced impairment of endothelium-dependent relaxation
same,hypercholesterolemia-induced impairment of coronary vasodilatation,"cholesterol-fed rabbits; oral, rabbits",beneficial effect on the hypercholesterolemia-induced impairment of coronary vasodilatation
same,hypercholesterolemia-induced platelet and neutrophil hyperactivity,cholesterol-fed rabbits; rabbits,reduced hypercholesterolemia-induced platelet and neutrophil hyperactivity
CC#CCC(C)[C@H](O)/C=C/[C@@H]1[C@H]2C/C(=C/CCCC(=O)O)C[C@H]2C[C@H]1O (stereo partly shown) [iloprost],L-NAME-induced fetal mortality,[6]; FIG. 5 lower panel,reduces the L-NAME-induced fetal mortality; also recorded: fetal mortality decreased
same,L-NAME-induced fetal growth retardation (fetal weight),[6]; FIG. 5 upper panel,partially reverses the L-NAME-induced fetal growth retardation; also recorded: fetal weight increased
same,L-NAME-induced hypertension during pregnancy,"[1]; iloprost plus L-NAME, progesterone levels high, FIG. 4",greater in late pregnancy; also recorded: fully reverses the L-NAME-induced hypertension
same,systemic blood pressure,[3],marked fall in systemic blood pressure
same,damage of microvascular arteriolar endothelium by cyclosporin,[7],protect microvascular arteriolar endothelium from damage by cyclosporin

# — US6613757B1, “COMBINATION OF PROSTACYCLIN WITH AN ESTROGEN OR PROGESTIN FOR THE PREVENTION AND TREATMENT OF ATHEROSCLEROTIC VASCULAR DISEASE INCLUDING PREECLAMPSIA AND FOR THE TREATMENT OF HYPERTENSION, AND FOR HORMONE REPLACEMENT THERAPY” (Board of Regents, The University of Texas System, priority 1994, dated 2003)
